# Measured values as given in ChEMBL document CHEMBL3885881, “DrugMatrix”.
# Species: Rattus norvegicus
# Assay: DrugMatrix - Regimen: Daily Repeat
# Format: toxicity, organism-based, Sprague-Dawley
# Design: regimen Daily Repeat, gender Male, age 6-8 weeks
# Conditions: in vivo, po, route oral GAVAGE, vehicle .5 % CMC; for BASOPHIL / EOSINOPHIL / ERYTHROCYTE COUNT / HEMATOCRIT / HEMOGLOBIN / LEUKOCYTE COUNT / LYMPHOCYTE / MEAN CORPUSCULAR HEMOGLOBIN / MEAN CORPUSCULAR HEMOGLOBIN CONCENTRATION / MEAN CORPUSCULAR VOLUME / MONOCYTE / NEUTROPHIL / PLATELET COUNT: tissue Blood; for ALANINE AMINOTRANSFERASE / ALBUMIN / ALKALINE PHOSPHATASE / ASPARTATE AMINOTRANSFERASE / BLOOD UREA NITROGEN / CHLORIDE / CHOLESTEROL / CREATINE PHOSPHOKINASE / CREATININE / GLUCOSE / PHOSPHORUS / POTASSIUM / SODIUM / TOTAL BILIRUBIN / TOTAL PROTEIN: tissue Plasma
# [1] = 0 mg/kg, 72 h, dose level Control, time 3 day
# [2] = 0 mg/kg, 120 h, dose level Control, time 5 day
# [3] = 25 mg/kg, 72 h, dose level Low, time 3 day
# [4] = 25 mg/kg, 120 h, dose level Low, time 5 day
compound,measurement,setting,value
C[C@]12CCC(=O)C=C1CC[C@@H]1[C@@H]2C(=O)C[C@@]2(C)[C@H]1CC[C@]2(O)C(=O)CO [CORTISONE],BASOPHIL,[1],1.52%
same,EOSINOPHIL,[1],0.98%
same,ERYTHROCYTE COUNT,[1],6.96 x10E6/uL
same,HEMATOCRIT,[1],44.65%
same,HEMOGLOBIN,[1],13.62 G/DL
same,LEUKOCYTE COUNT,[1],9.83 x10E3/uL
same,LYMPHOCYTE,[1],76.48%
same,MEAN CORPUSCULAR HEMOGLOBIN,[1],19.57 pg
same,MEAN CORPUSCULAR HEMOGLOBIN CONCENTRATION,[1],30.47 G/DL
same,MEAN CORPUSCULAR VOLUME,[1],64.22 fL
same,MONOCYTE,[1],2.13%
same,NEUTROPHIL,[1],18.6%
same,PLATELET COUNT,[1],1217.17 x10E3/uL
same,ALANINE AMINOTRANSFERASE,[1],41 u/L
same,ALBUMIN,[1],3.77 G/DL
same,ALKALINE PHOSPHATASE,[1],411.83 u/L
same,ASPARTATE AMINOTRANSFERASE,[1],62.83 u/L
same,BLOOD UREA NITROGEN,[1],15.17 mg/dL
same,CHLORIDE,[1],104.33 MEQ/L
same,CHOLESTEROL,[1],71.17 mg/dL
same,CREATINE PHOSPHOKINASE,[1],123.5 u/L
same,CREATININE,[1],0.55 mg/dL
same,GLUCOSE,[1],182.67 mg/dL
same,PHOSPHORUS,[1],11.23 mg/dL
same,POTASSIUM,[1],7.03 MEQ/L
same,SODIUM,[1],148 MEQ/L
same,TOTAL BILIRUBIN,[1],0.57 mg/dL
same,TOTAL PROTEIN,[1],6.85 G/DL
same,BASOPHIL,[2],1.35%
same,EOSINOPHIL,[2],0.43%
same,ERYTHROCYTE COUNT,[2],6.96 x10E6/uL
same,HEMATOCRIT,[2],44.35%
same,HEMOGLOBIN,[2],13.98 G/DL
same,LEUKOCYTE COUNT,[2],9.45 x10E3/uL
same,LYMPHOCYTE,[2],80.83%
same,MEAN CORPUSCULAR HEMOGLOBIN,[2],20.1 pg
same,MEAN CORPUSCULAR HEMOGLOBIN CONCENTRATION,[2],31.52 G/DL
same,MEAN CORPUSCULAR VOLUME,[2],63.72 fL
same,MONOCYTE,[2],2.37%
same,NEUTROPHIL,[2],14.05%
same,PLATELET COUNT,[2],1298 x10E3/uL
same,ALANINE AMINOTRANSFERASE,[2],42.17 u/L
same,ALBUMIN,[2],3.77 G/DL
same,ALKALINE PHOSPHATASE,[2],419 u/L
same,ASPARTATE AMINOTRANSFERASE,[2],66.67 u/L
same,BLOOD UREA NITROGEN,[2],16.67 mg/dL
same,CHLORIDE,[2],103.17 MEQ/L
same,CHOLESTEROL,[2],66.33 mg/dL
same,CREATINE PHOSPHOKINASE,[2],148.33 u/L
same,CREATININE,[2],0.58 mg/dL
same,GLUCOSE,[2],196.83 mg/dL
same,PHOSPHORUS,[2],11.8 mg/dL
same,POTASSIUM,[2],6.47 MEQ/L
same,SODIUM,[2],148.33 MEQ/L
same,TOTAL BILIRUBIN,[2],0.53 mg/dL
same,TOTAL PROTEIN,[2],6.77 G/DL
same,BASOPHIL,[3],2.4%
same,EOSINOPHIL,[3],0.4%
same,ERYTHROCYTE COUNT,[3],6.64 x10E6/uL
same,HEMATOCRIT,[3],45.5%
same,HEMOGLOBIN,[3],13.9 G/DL
same,LEUKOCYTE COUNT,[3],7.9 x10E3/uL
same,LYMPHOCYTE,[3],78.6%
same,MEAN CORPUSCULAR HEMOGLOBIN,[3],21 pg
same,MEAN CORPUSCULAR HEMOGLOBIN CONCENTRATION,[3],30.6 G/DL
same,MEAN CORPUSCULAR VOLUME,[3],68.5 fL
same,MONOCYTE,[3],2.95%
same,NEUTROPHIL,[3],15.4%
same,PLATELET COUNT,[3],1648.5 x10E3/uL
same,ALANINE AMINOTRANSFERASE,[3],43 u/L
same,ALBUMIN,[3],3.8 G/DL
same,ALKALINE PHOSPHATASE,[3],401 u/L
same,ASPARTATE AMINOTRANSFERASE,[3],68.67 u/L
same,BLOOD UREA NITROGEN,[3],12 mg/dL
same,CHLORIDE,[3],103.67 MEQ/L
same,CHOLESTEROL,[3],62.67 mg/dL
same,CREATINE PHOSPHOKINASE,[3],120.67 u/L
same,CREATININE,[3],0.53 mg/dL
same,GLUCOSE,[3],178.33 mg/dL
same,PHOSPHORUS,[3],12.83 mg/dL
same,POTASSIUM,[3],6.87 MEQ/L
same,SODIUM,[3],149 MEQ/L
same,TOTAL BILIRUBIN,[3],0.47 mg/dL
same,TOTAL PROTEIN,[3],6.63 G/DL
same,BASOPHIL,[4],1.53%
same,EOSINOPHIL,[4],0.33%
same,ERYTHROCYTE COUNT,[4],7.03 x10E6/uL
same,HEMATOCRIT,[4],45.13%
same,HEMOGLOBIN,[4],14.27 G/DL
same,LEUKOCYTE COUNT,[4],9 x10E3/uL
same,LYMPHOCYTE,[4],77.9%
same,MEAN CORPUSCULAR HEMOGLOBIN,[4],20.33 pg
same,MEAN CORPUSCULAR HEMOGLOBIN CONCENTRATION,[4],31.67 G/DL
same,MEAN CORPUSCULAR VOLUME,[4],64.27 fL
same,MONOCYTE,[4],2.7%
same,NEUTROPHIL,[4],16.73%
same,PLATELET COUNT,[4],1381.67 x10E3/uL
same,ALANINE AMINOTRANSFERASE,[4],45 u/L
same,ALBUMIN,[4],3.7 G/DL
same,ALKALINE PHOSPHATASE,[4],435 u/L
same,ASPARTATE AMINOTRANSFERASE,[4],68.33 u/L
same,BLOOD UREA NITROGEN,[4],15.33 mg/dL
same,CHLORIDE,[4],103 MEQ/L
same,CHOLESTEROL,[4],54 mg/dL
same,CREATINE PHOSPHOKINASE,[4],128.67 u/L
same,CREATININE,[4],0.5 mg/dL
same,GLUCOSE,[4],186 mg/dL
same,PHOSPHORUS,[4],12.57 mg/dL
same,POTASSIUM,[4],6.6 MEQ/L
same,SODIUM,[4],148 MEQ/L
same,TOTAL BILIRUBIN,[4],0.47 mg/dL
same,TOTAL PROTEIN,[4],6.6 G/DL
